Data taken from patent US7572825B2, “Ketones and reduced ketones as therapeutic agents for the treatment of bone conditions” (The University Court of the University of Aberdeen, priority 2003, dated 2009).

Tests used:
J774 macrophages = assay: Alamar Blue macrophage J774 viability assay; format: cell-based; settings: Mus musculus, 72 hours exposure, J774 macrophage cell line, read-out: IC50 against J774 macrophages (viability)
Method: Initial screening of candidate compounds was performed using viability assays, on cultures of the macrophage cell line J774, which have been used before as a model system for osteoclast survival (see, e.g., Luckman et al., 1998). The assay is based on the survival of the J774 macrophage cell line; macrophages are closely related to osteoclasts, and contain similar high levels of esterase activity.
J774 cells were plated at 10^4 cells per well in 150 μL αMEM (α Modified Eagle Medium) in 96-well plates and grown overnight. The next day, compounds were added to the cultures, and culture was continued for another 72 hours. At the end of the culture period cell survival was determined using an Alamar Blue assay as previously described (see, e.g., Nociari et al., 1998).
Alamar Blue is an oxidation-reduction sensitive indicator. The dye itself is in the oxidised state, which is blue and non-fluorescent. […] Thus the transformation from oxidised form to reduced form can be measured by fluorimetric or colourimetric means. For fluorescence measurements, 530-560 nm excitation and 590 nm emission wavelengths are typically used. For colourimetric measurements, absorbance is measured at 570 nm (reduced form) and 600 nm (oxidised form) and a simple calculation performed to determine the relative quantities of the two species. […]

osteoblasts = assay: Alamar Blue mouse osteoblast assay; format: cell-based; settings: 72 hours exposure, read-out: IC50 against osteoblasts (survival)
Method: Osteoblasts were isolated as described above and plated at 10^4 cells/well in 96-well plates in 100 μL of αMEM supplemented with 10% FCS and antibiotics. Test compounds were added after 24 hours and left for 72 hours. Cell viability was assessed using the Alamar Blue assay as described for J774 macrophages. Alamar Blue (Biosource International) was added undiluted to each well (1:10 v/v, 10 μL). The plate was incubated at 37° C. for 3 to 4 hours and the fluorescence was measured at 570 nm, with a 25 nm bandwidth.
Osteoblast Isolation. Briefly, osteoblasts were isolated from the calvarial bones of 2-day-old mice by sequential collagenase digestion (type I collagenase, Sigma) and cultured in αMEM supplemented with 10% FCS (foetal calf serum) and penicillin and streptomycin at 37° C. in 5% CO2.
More specifically, osteoblasts were obtained from a collagenase digestion of the calvaria (skull bones) of 2-3 day old neo-natal MF1 mice. At this stage in their development these are soft and easily removed. The calvaria from 5-6 mice were carefully dissected and washed in HBSS (Hank's balanced saline solution). The calvaria were placed in a 15 mL tube and shaken at 37° C. in 4 mL collagenase (10 mg/ml) for 10 minutes. This removes the excess unwanted tissue. The liquid was disposed of and a further 4 mL collagenase (10 mg/ml) added to the tube. The calvaria were then digested for a further 30 minutes. […]

[1] = tested on: ovariectomy induced bone loss; assay: Ovariectomy induced bone loss in mice, trabecular bone mineral density by pQCT; format: in vivo; settings: OVX female C57/BL6 mice, 20 mg/kg by gavage in olive oil, 21 days, tibial metaphysis
Method: Animals. Female 9 week-old C57/BL6 mice. Animals were housed in a designated animal facility and routinely maintained on a 12 h:12 h light:dark cycle and given ad libitum access to food and water. Ovariectomy induced bone loss. Bilateral ovariectomy (Ovx) was performed under general anaesthesia. Sham ovariectomy (Sham) was similarly performed but with externalisation and replacement of the ovaries. Animals were given a gavage of (a) candidate compound (e.g., 20 mg/kg) in vehicle (olive oil), or (b) vehicle (olive oil). After 21 days, the animals were killed, and the tibial bones were dissected and used for bone mineral density measurements. Bone Mineral Measurements. Measurements of bone mineral density (BMD) at the left proximal tibial metaphysis were determined by peripheral quantitative computed tomography (pQCT) using an XCT Research M bone densitometer with a voxel size of 70 μm and analysis software version 5.1.4. (Stratec Medizintechnik, Pforzheim, Germany). Daily quality assurance measurements were performed using a plexi-coated PVC-fluorinated hydrocarbon phantom according to the manufacturer's instructions.

Compound: OCCCCCC(O)c1ccc(-c2ccccc2)cc1 (centres unmarked) [ABD-150, 1-Biphenyl-4-yl-hexan-1,6-diol]
- IC50 (J774 macrophages): < 20 µM
- IC50 (osteoblasts): > 100 µM

Compound: O=C(CCCCCO)c1ccc(-c2ccccc2)cc1 [ABD-68, 6-Hydroxy-1-(4-biphenyl)hexan-1-one]
- reversal of ovariectomy-induced bone loss (percent change in trabecular BMD) [1]: very effective at reversing the bone loss
- IC50 (J774 macrophages): < 20 µM
- IC50 (osteoblasts): > 100 µM
